The data set in a line: Hydrolysis stability of monomer in water/ethanol/phosphoric acid (1H-NMR). Format: physicochemical. The text has this:
A major advantage of the amides according to the invention is to be seen in their hydrolysis stability. Aqueous solutions of the amides are thus also storage-stable in the presence of acidic compounds. As a linking of the monomer components via covalent C—C single bonds takes place on polymerization, this also applies to the corresponding polymers.

Turning to Glycerine dimethacrylate, the Hydrolysis stability entry (20 wt.-% solution in 1:1:1 water, ethanol and 10% phosphoric acid, 37° C., 4 weeks, 1H-NMR) was “−”. Also, the “Hydrolysis stability in the presence of acid (in words)” value (aqueous solution, in the presence of phosphoric acid / acidic compounds) is “completely split to form glycerine and methacrylic acid”.

For the origin of these results see US6953832B2, “Dental materials based on polyfunctional amides” (Ivoclar Vivadent AG, priority 2001, dated 2005).
